Experimental data reported in PMC7933434, “Entropy-driven binding of gut bacterial β-glucuronidase inhibitors ameliorates irinotecan-induced toxicity” (Communications Biology, 2021).
Several values for one entry are separate records, joined by “and”; a condition that tells them apart may be missing. Identical values can stand only once. Like-named read-outs stand apart in the source and are kept apart here.

Assays:
HsGUS (human GUS) = molecular target: T1, HsGUS (human GUS) (Homo sapiens, UniProt P08236); experiment: GUS inhibition assay, hydrolysis of 4-methylumbelliferyl-β-glucuronide, HsGUS; assay type: biochemical; set-up: GUS activity (hydrolysis rate of MUG): unit not given here; conditions: [Inhibitor 1] =200 nM; [MUG] 2 mM
T1 construct: HsGUS was prepared as described[37]; made in house
T1 sequence (P08236 23-651): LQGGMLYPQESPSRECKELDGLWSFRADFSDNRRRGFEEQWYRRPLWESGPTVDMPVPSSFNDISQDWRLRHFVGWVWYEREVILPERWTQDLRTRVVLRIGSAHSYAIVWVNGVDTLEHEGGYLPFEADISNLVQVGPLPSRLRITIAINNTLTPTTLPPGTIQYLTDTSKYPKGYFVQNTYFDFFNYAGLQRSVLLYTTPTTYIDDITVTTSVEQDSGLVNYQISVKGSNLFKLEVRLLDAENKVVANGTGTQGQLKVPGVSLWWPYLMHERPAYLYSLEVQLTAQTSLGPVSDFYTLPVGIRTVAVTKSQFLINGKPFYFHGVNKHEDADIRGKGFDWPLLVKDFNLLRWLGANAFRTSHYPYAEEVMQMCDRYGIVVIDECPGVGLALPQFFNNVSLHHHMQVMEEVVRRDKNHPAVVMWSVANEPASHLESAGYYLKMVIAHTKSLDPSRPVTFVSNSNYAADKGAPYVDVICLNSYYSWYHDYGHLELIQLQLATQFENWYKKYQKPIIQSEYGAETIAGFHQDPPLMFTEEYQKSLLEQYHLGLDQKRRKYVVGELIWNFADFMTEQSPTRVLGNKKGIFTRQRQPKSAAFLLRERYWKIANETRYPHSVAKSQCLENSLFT

[1] = molecular target: EcGUS (Escherichia coli GUS) (Escherichia coli, UniProt P05804); experiment: biochemical
Chain of EcGUS (Escherichia coli GUS) (P05804 whole entry): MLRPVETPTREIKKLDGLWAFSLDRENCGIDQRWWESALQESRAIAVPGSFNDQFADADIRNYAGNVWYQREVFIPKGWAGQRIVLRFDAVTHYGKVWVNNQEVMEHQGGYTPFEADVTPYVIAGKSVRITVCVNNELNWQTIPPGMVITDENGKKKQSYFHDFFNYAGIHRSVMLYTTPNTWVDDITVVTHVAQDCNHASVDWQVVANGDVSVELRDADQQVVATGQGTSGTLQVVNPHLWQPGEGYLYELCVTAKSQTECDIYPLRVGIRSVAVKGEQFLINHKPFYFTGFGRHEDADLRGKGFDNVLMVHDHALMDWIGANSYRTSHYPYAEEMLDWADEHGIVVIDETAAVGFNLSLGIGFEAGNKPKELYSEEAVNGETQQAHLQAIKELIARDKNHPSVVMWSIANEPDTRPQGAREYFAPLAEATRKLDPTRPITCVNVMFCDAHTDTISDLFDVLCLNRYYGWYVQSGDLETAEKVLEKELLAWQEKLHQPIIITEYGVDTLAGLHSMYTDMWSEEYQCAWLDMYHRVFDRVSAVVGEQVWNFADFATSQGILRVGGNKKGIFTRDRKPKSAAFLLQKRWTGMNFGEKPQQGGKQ

[2] = molecular target: LgGUS (Lactobacillus gasseri GUS) (Lactobacillus gasseri, UniProt Q9AHJ8); experiment: GUS inhibition assay, hydrolysis of 4-methylumbelliferyl-β-glucuronide, LgGUS; assay type: biochemical; conditions: LgGUS; 50 mM sodium acetate pH 4.5, 37 °C
Chain of LgGUS (Lactobacillus gasseri GUS) (Q9AHJ8 1-598): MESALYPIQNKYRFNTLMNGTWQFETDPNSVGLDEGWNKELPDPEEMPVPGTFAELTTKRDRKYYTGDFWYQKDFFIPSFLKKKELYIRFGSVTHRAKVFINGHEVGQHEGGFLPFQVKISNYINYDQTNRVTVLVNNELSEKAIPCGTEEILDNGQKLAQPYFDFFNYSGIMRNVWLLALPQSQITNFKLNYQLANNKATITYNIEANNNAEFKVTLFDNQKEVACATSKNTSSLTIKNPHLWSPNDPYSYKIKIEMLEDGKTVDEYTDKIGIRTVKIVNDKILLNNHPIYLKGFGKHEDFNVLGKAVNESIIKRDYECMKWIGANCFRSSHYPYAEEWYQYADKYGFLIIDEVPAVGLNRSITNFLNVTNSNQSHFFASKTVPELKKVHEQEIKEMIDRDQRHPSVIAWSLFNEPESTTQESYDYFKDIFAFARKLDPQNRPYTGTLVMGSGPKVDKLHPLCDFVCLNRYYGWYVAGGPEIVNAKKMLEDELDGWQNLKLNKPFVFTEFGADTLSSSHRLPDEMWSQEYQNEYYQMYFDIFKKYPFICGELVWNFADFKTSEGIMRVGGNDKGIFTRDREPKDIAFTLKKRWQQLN

[3] = molecular target: BdGUS (Bifidobacterium dentium GUS) (Bifidobacterium dentium, UniProt D2Q7B1); experiment: biochemical; set-up: GUS activity (hydrolysis rate of MUG) / 1/v: unit not given here
Chain of BdGUS (Bifidobacterium dentium GUS) (D2Q7B1 1-668): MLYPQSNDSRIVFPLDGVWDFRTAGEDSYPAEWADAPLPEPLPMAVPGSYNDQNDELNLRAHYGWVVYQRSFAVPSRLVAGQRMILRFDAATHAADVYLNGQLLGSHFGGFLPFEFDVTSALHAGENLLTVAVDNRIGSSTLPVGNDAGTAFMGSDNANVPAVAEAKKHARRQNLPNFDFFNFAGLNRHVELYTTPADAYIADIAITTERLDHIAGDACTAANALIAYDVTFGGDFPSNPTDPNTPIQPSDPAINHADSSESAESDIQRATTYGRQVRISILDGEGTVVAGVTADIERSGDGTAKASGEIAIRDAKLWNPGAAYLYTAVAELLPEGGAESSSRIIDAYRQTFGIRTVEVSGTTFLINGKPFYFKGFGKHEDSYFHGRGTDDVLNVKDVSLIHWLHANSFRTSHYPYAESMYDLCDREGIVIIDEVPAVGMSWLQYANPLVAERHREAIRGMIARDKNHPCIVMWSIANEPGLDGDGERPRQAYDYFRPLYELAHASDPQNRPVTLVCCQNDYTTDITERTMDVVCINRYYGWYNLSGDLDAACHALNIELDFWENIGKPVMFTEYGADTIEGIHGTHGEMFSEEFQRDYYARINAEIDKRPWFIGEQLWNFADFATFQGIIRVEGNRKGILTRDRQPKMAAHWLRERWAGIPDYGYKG

EcGUS = EcGUS (Escherichia coli, UniProt P05804); experiment: Isothermal titration calorimetry, EcGUS; assay type: binding; conditions: EcGUS, 298 K
Chain of EcGUS (P05804 whole entry): as the sequence (P05804 whole entry) above

BdGUS = BdGUS (Bifidobacterium dentium, UniProt D2Q7B1); experiment: biochemical; assay type: binding; conditions: BdGUS; Tris buffer (250 mM NaCl, 20 mM Tris, pH 8.0); 298 K
Chain of BdGUS (D2Q7B1 entry or part of it): as the sequence (D2Q7B1 1-668) above

[4] = [Inhibitor 1] = 6.25 nM, [MUG] 0.375 mM
[5] = [Inhibitor 1] = 6.25 nM, [MUG] 0.75 mM
[6] = [Inhibitor 1] = 6.25 nM, [MUG] 1.5 mM
[7] = [Inhibitor 1] = 6.25 nM, [MUG] 3 mM
[8] = [Inhibitor 1] = 12.5 nM, [MUG] 0.375 mM
[9] = [Inhibitor 1] = 12.5 nM, [MUG] 0.75 mM
[10] = [Inhibitor 1] = 12.5 nM, [MUG] 1.5 mM
[11] = [Inhibitor 1] = 12.5 nM, [MUG] 3 mM
[12] = [Inhibitor 1] = 25 nM, [MUG] 0.375 mM
[13] = [Inhibitor 1] = 25 nM, [MUG] 0.75 mM
[14] = [Inhibitor 1] = 25 nM, [MUG] 1.5 mM
[15] = [Inhibitor 1] = 25 nM, [MUG] 3 mM
[16] = [Inhibitor1] = 50 nM, [MUG] 0.375 mM
[17] = [Inhibitor1] = 50 nM, [MUG] 0.75 mM
[18] = [Inhibitor1] = 50 nM, [MUG] 1.5 mM
[19] = [Inhibitor1] = 50 nM, [MUG] 3 mM
[20] = Tris buffer (250 mM NaCl, 20 mM Tris, pH 8.0)
[21] = phosphate buffer (250 mM NaCl, 20 mM KH2PO4, 100 mM Na2HPO4, pH 8.0)

O=C(O)[C@H]1CNC[C@@H](O)[C@@H]1O [Inhibitor 1, Uronic isofagomine]
GUS activity (hydrolysis rate of MUG) (HsGUS (human GUS)): 4782.69 and 4439.05
Ki [1]: 0.016 µM
Ki ([1]; 50 mM HEPES pH 7.5, 37 °C): 0.016 ± 0.002 µM
Ki ([1]; source data of Table 1, from plot of apparent Km against [inhibitor] (μM)): 0.0155 µM
Ki [2]: 110 ± 33 nM
Ki ([3]; BdGUS): 7.4 nM
1/v [3, 4]: 0.8126 and 0.846 and 0.7526
GUS activity (hydrolysis rate of MUG) [3, 4]: 0.2748 and 0.264 and 0.2967
1/v [3, 5]: 0.5186 and 0.5024 and 0.468
GUS activity (hydrolysis rate of MUG) [3, 5]: 0.4306 and 0.4444 and 0.4771
1/v [3, 6]: 0.3591 and 0.3484 and 0.3239
GUS activity (hydrolysis rate of MUG) [3, 6]: 0.6217 and 0.6409 and 0.6893
1/v [3, 7]: 0.2793 and 0.2899 and 0.2702
GUS activity (hydrolysis rate of MUG) [3, 7]: 0.7996 and 0.7703 and 0.8263
1/v [3, 8]: 1.155 and 1.089 and 1.043
GUS activity (hydrolysis rate of MUG) [3, 8]: 0.1934 and 0.2051 and 0.2141
1/v [3, 9]: 0.6535 and 0.6591 and 0.6116
GUS activity (hydrolysis rate of MUG) [3, 9]: 0.3417 and 0.3388 and 0.3651
1/v [3, 10]: 0.4306 and 0.4268 and 0.4023
GUS activity (hydrolysis rate of MUG) [3, 10]: 0.5186 and 0.5232 and 0.555
1/v [3, 11]: 0.3354 and 0.3372 and 0.306
GUS activity (hydrolysis rate of MUG) [3, 11]: 0.6657 and 0.6621 and 0.7298
1/v [3, 12]: 1.814 and 1.753 and 1.625
GUS activity (hydrolysis rate of MUG) [3, 12]: 0.1231 and 0.1273 and 0.1374
1/v [3, 13]: 0.8901 and 1.007 and 0.9854
GUS activity (hydrolysis rate of MUG) [3, 13]: 0.2509 and 0.2218 and 0.2266
1/v [3, 14]: 0.5908 and 0.5953 and 0.5748
GUS activity (hydrolysis rate of MUG) [3, 14]: 0.3779 and 0.3751 and 0.3885
1/v [3, 15]: 0.423 and 0.431 and 0.4024
GUS activity (hydrolysis rate of MUG) [3, 15]: 0.5279 and 0.5181 and 0.5549
1/v [3, 16]: 3.2999 and 3.135 and 3.11
GUS activity (hydrolysis rate of MUG) [3, 16]: 0.06767 and 0.07122 and 0.07181
1/v [3, 17]: 1.905 and 1.744 and 1.761
GUS activity (hydrolysis rate of MUG) [3, 17]: 0.1172 and 0.128 and 0.1268
1/v [3, 18]: 0.9882 and 1.034 and 0.9748
GUS activity (hydrolysis rate of MUG) [3, 18]: 0.226 and 0.216 and 0.2291
1/v [3, 19]: 0.6379 and 0.6438 and 0.6305
GUS activity (hydrolysis rate of MUG) [3, 19]: 0.35 and 0.3468 and 0.3542
Kd (EcGUS; [20]): 20 ± 2 nM
ΔG (EcGUS; [20]): –10.63 ± 0.075 kcal/mol
—TΔS (EcGUS; [20]): –1.51 ± 0.20 kcal/mol
Kd (EcGUS; [21]): 60 ± 1 nM
ΔG (EcGUS; [21]): –9.89 ± 0.01 kcal/mol
ΔH (EcGUS; [21]): –9.48 ± 0.29 kcal/mol
—TΔS (EcGUS; [21]): –0.41 ± 0.30 kcal/mol
Kd (BdGUS): 300 ± 60 nM
ΔG (BdGUS): –8.91 ± 0.13 kcal/mol
ΔH (BdGUS): –10.47 kcal/mol
—TΔS (BdGUS): 1.56 ± 0.37 kcal/mol
